# Results from PubChem BioAssay (NCI).
#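 1) Cells in 96-well plates. 2) Compound, 48 h, 5 concentrations. 3) Linear interpolation between surrounding doses. 4) Unreached endpoint = highest concentration. At the GI50, growth is halved. TGI marks complete inhibition of growth.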
# How the values were obtained:
# Assay in all cases: growth of human tumour cells (NCI), 48 h
# [1] = system: UACC-257 melanoma
# [2] = system: OVCAR-4 ovarian
# [3] = system: HT29 colon
# [4] = system: TK-10 renal
# [5] = system: DU-145 prostate
# [6] = system: CCRF-CEM leukemia
# [7] = system: HCT-116 colon
# [8] = system: M14 melanoma
# [9] = system: BT-549 breast
# [10] = system: UO-31 renal
# [11] = system: MOLT-4 leukemia
# [12] = system: OVCAR-5 ovarian
# [13] = system: UACC-62 melanoma
# [14] = system: MDA-MB-231 breast
# [15] = system: HL-60(TB) leukemia
# [16] = system: SK-MEL-5 melanoma
# [17] = system: HCC-2998 colon
# [18] = system: MDA-MB-435
# [19] = system: SF-539 CNS
# [20] = system: IGROV1 ovarian
# [21] = system: SR leukemia
# [22] = system: K-562 leukemia
# [23] = system: ACHN renal
# [24] = system: MDA-MB-468 breast
# [25] = system: COLO 205 colon
# [26] = system: SK-MEL-2 melanoma
# [27] = system: OVCAR-8 ovarian
# [28] = system: SK-MEL-28 melanoma
# [29] = system: HCT-15 colon
# [30] = system: SNB-19 CNS
# [31] = system: T-47D breast
# [32] = system: KM12 colon
# [33] = system: MCF7 breast
# [34] = system: MALME-3M melanoma
# [35] = system: SN12C renal
smiles,measurement,setting,value
O=C(NCCCCCCCCCC[P+](c1ccccc1)(c1ccccc1)c1ccccc1)c1ccc(-n2nc(-c3ccccc3O)nc2-c2ccccc2O)cc1,GI50,[1],90.4 nM
same,TGI,[1],792 nM
same,GI50,[2],180 nM
same,TGI,[2],2210 nM
same,GI50,[3],40.1 nM
same,TGI,[3],789 nM
same,GI50,[4],330 nM
same,TGI,[4],1500 nM
same,GI50,[5],46.4 nM
same,TGI,[5],1630 nM
same,GI50,[6],39.6 nM
same,TGI,[6],> 100000 nM
same,GI50,[7],37.7 nM
same,TGI,[7],1080 nM
same,GI50,[8],82.5 nM
same,TGI,[8],1320 nM
same,GI50,[9],104 nM
same,TGI,[9],673 nM
same,GI50,[10],428 nM
same,TGI,[10],1930 nM
same,GI50,[11],58.5 nM
same,TGI,[11],1430 nM
same,GI50,[12],192 nM
same,TGI,[12],926 nM
same,GI50,[13],84 nM
same,TGI,[13],568 nM
same,GI50,[14],99.3 nM
same,TGI,[14],728 nM
same,GI50,[15],56.5 nM
same,TGI,[15],461 nM
same,GI50,[16],165 nM
same,TGI,[16],447 nM
same,GI50,[17],57.4 nM
same,TGI,[17],1430 nM
same,GI50,[18],40.9 nM
same,TGI,[18],1110 nM
same,GI50,[19],172 nM
same,TGI,[19],716 nM
same,GI50,[20],48.3 nM
same,TGI,[20],1180 nM
same,GI50,[21],< 19.1 nM
same,TGI,[21],> 40500 nM
same,GI50,[22],44.9 nM
same,TGI,[22],3210 nM
same,GI50,[23],379 nM
same,TGI,[23],1360 nM
same,GI50,[24],25.5 nM
same,TGI,[24],121 nM
same,GI50,[25],50.8 nM
same,TGI,[25],268 nM
same,GI50,[26],133 nM
same,TGI,[26],530 nM
same,GI50,[27],74 nM
same,TGI,[27],1220 nM
same,GI50,[28],115 nM
same,TGI,[28],1590 nM
same,GI50,[29],566 nM
same,TGI,[29],2480 nM
same,GI50,[30],50.5 nM
same,TGI,[30],1170 nM
same,GI50,[31],35.2 nM
same,TGI,[31],522 nM
same,GI50,[32],203 nM
same,TGI,[32],1340 nM
same,GI50,[33],41.7 nM
same,TGI,[33],953 nM
same,GI50,[34],30.7 nM
same,TGI,[34],190 nM
same,GI50,[35],40.7 nM
same,TGI,[35],721 nM
